# Measurements as given in US20140378513A1, “USE OF FUNGICIDES IN LIQUID SYSTEMS” (priority 2011, published 2014).
# How the values were obtained:
# [1] = system: Rhizophidium planktonicum; experiment: Arthrospira sp. outdoor pond, qPCR monitoring and treatment; conditions: 1 ppm
# Experimental: A 200,000 liter outdoor pond located in Las Cruces, N. Mex. is inoculated with Arthrospira sp. at an initial DW of 0.2 g/l. Growth of the microalgae is monitored daily by measuring the ash free dry weight of the culture. qPCR monitoring is performed daily to detect the presence of the chytrid fungus Rhizophidium planktonicum or close relatives using primers […] (SEQ ID NO. 40) and […] (SEQ ID NO. 41).
# (§1) Initially, the Ct value for the pest is above the threshold of Ct=30. The measured Ct observed for R. planktonicum stays below Ct=30 and indicates a need for crop protective action. Once detected with a Ct<30, chlorothalonil is added at a concentration of 1 ppm. Daily monitoring is continued and the Ct observed for R. planktonicum increases above the Ct=30 threshold and remains above the threshold.
# [2] = system: Paraphysoderma sedebokerensis; experiment: Haematococcus pluvialis outdoor pond, PCR monitoring and treatment; conditions: 1 ppm
# Experimental: A 200,000 liter outdoor pond is inoculated with Haematococcus pluvialis at an initial OD (750 nm) of ˜0.15 (pond P08). Growth of the microalgae is monitored daily by measuring the ash free dry weight of the culture. PCR monitoring is performed daily to detect the presence of the chytrid fungus Paraphysoderma sedebokerensis or close relatives using […] (SEQ ID NO. 38) and […] (SEQ ID NO. 39) as primers.
# as §1, with “P. sedebokerensis” for “R. planktonicum”
# [3] = system: Pest in infected Scenedesmus dimorphus culture; experiment: Fungicide efficacy on pest control in infected microalgae culture; type: cell-based
# From the text: Failure to treat an infected culture results in the collapse and loss of the microalgae culture. […] Test fungicides are graded on a rating scale of 0 to 3 where a score of 0 represents an efficacy of between 0 and 25%, a score of 1 represents an efficacy of between 26 and 50%, a score of 2 represents an efficacy of between 51 and 75% and a score of 3 represents an efficacy of between 76 and 100%.
smiles,measurement,setting,value
"N#Cc1c(Cl)c(Cl)c(Cl)c(C#N)c1Cl [chlorothalonil, 2,4,5,6-tetrachlorobenzene-1,3-dicarbonitrile]",Ct observed for R. planktonicum after treatment,[1],> 30
same,Ct observed for P. sedebokerensis after treatment,[2],> 30
same,Scenedesmus dimorphus Efficacy confirmation,"[3]; @ 2 ppm, second trial",75.7% @ 2 ppm
same,activity at 2 ppm,"[3]; Tetradesmus dimorphus, read-out: Scenedesmus dimorphus efficacy",84.5%
same,Rating,[3]; rating scale of 0 to 3 by percent efficacy,3 (a score of 3 represents an efficacy of between 76 and 100%)
